Measurements as given in US6410054B1, “Immediate release eplerenone compositions” (G. D. Searle & Co., priority 1998, dated 2002).

Test: Single dose study: urinary excretion of eplerenone and open lactone ring form
Assay type: in vivo, humans
Procedure: The study employed seven parallel dose groups of eight healthy male humans.
The plasma samples collected from subjects dosed with eplerenone were assayed for concentrations of eplerenone and the open lactone ring form of eplerenone. […] A subset of plasma samples was also assayed for testosterone levels. The urine collected was analyzed to determine concentrations and amounts of eplerenone and the open lactone ring form of eplerenone, the amount of sodium and potassium excreted, and the urinary log10 (sodium/potassium) ratio.

Compound: COC(=O)C1CC2=CC(=O)CCC2(C)C23OC2CC2(C)C(CC[C@@]24CCC(=O)O4)C13 (stereo partly drawn) [eplerenone, methyl hydrogen 9,11α-epoxy-17α-hydroxy-3-oxopregn-4-ene-7α,21-dicarboxylate, γ-lactone]
- Amount of Eplerenone Excreted in Urine (10 mg dose, 0 to 2 hours): (21.6) mcg
- Concentration of Eplerenone Excreted in Urine (10 mg dose, 0 to 2 hours): 278.0 ng/mL
- Amount of Eplerenone Excreted in Urine (10 mg dose, 0 to 24 hours): (78.8) mcg
- Amount of Eplerenone Excreted in Urine (10 mg dose, 2 to 4 hours): (35.8) mcg
- Concentration of Eplerenone Excreted in Urine (10 mg dose, 2 to 4 hours): 191.1 ng/mL
- Amount of Eplerenone Excreted in Urine (10 mg dose, 4 to 6 hours): (16.5) mcg
- Concentration of Eplerenone Excreted in Urine (10 mg dose, 4 to 6 hours): 107.2 ng/mL
- Amount of Eplerenone Excreted in Urine (10 mg dose, 6 to 8 hours): (7.6) mcg
- Concentration of Eplerenone Excreted in Urine (10 mg dose, 6 to 8 hours): 63.8 ng/mL
- Amount of Eplerenone Excreted in Urine (10 mg dose, 8 to 10 hours): (0) mcg
- Concentration of Eplerenone Excreted in Urine (10 mg dose, 8 to 10 hours): 0 ng/mL
- Amount of Eplerenone Excreted in Urine (10 mg dose, 10 to 12 hours): (0) mcg
- Concentration of Eplerenone Excreted in Urine (10 mg dose, 10 to 12 hours): 0 ng/mL
- Amount of Eplerenone Excreted in Urine (10 mg dose, 12 to 14 hours): (0) mcg
- Concentration of Eplerenone Excreted in Urine (10 mg dose, 12 to 14 hours): 0 ng/mL
- Amount of Eplerenone Excreted in Urine (10 mg dose, 14 to 16 hours): (0) mcg
- Concentration of Eplerenone Excreted in Urine (10 mg dose, 14 to 16 hours): 0 ng/mL
- Amount of Eplerenone Excreted in Urine (10 mg dose, 16 to 24 hours): (0) mcg
- Concentration of Eplerenone Excreted in Urine (10 mg dose, 16 to 24 hours): 0 ng/mL
- Amount of Eplerenone Excreted in Urine (10 mg dose, −9 to 0 hours): (0) mcg
- Concentration of Eplerenone Excreted in Urine (10 mg dose, −9 to 0 hours): 0 ng/mL
- Amount of Eplerenone Excreted in Urine (50 mg dose, 0 to 2 hours): (99.2) mcg
- Concentration of Eplerenone Excreted in Urine (50 mg dose, 0 to 2 hours): 1252.2 ng/mL
- Amount of Eplerenone Excreted in Urine (50 mg dose, 0 to 24 hours): (410.6) mcg
- Amount of Eplerenone Excreted in Urine (50 mg dose, 2 to 4 hours): (175.3) mcg
- Concentration of Eplerenone Excreted in Urine (50 mg dose, 2 to 4 hours): 1064.6 ng/mL
- Amount of Eplerenone Excreted in Urine (50 mg dose, 4 to 6 hours): (60.6) mcg
- Concentration of Eplerenone Excreted in Urine (50 mg dose, 4 to 6 hours): 518.3 ng/mL
- Amount of Eplerenone Excreted in Urine (50 mg dose, 6 to 8 hours): (30.7) mcg
- Concentration of Eplerenone Excreted in Urine (50 mg dose, 6 to 8 hours): 307.3 ng/mL
- Amount of Eplerenone Excreted in Urine (50 mg dose, 8 to 10 hours): (27.6) mcg
- Concentration of Eplerenone Excreted in Urine (50 mg dose, 8 to 10 hours): 172.4 ng/mL
- Amount of Eplerenone Excreted in Urine (50 mg dose, 10 to 12 hours): (16.5) mcg
- Concentration of Eplerenone Excreted in Urine (50 mg dose, 10 to 12 hours): 72.7 ng/mL
- Amount of Eplerenone Excreted in Urine (50 mg dose, 12 to 14 hours): (11.3) mcg
- Concentration of Eplerenone Excreted in Urine (50 mg dose, 12 to 14 hours): 23.1 ng/mL
- Amount of Eplerenone Excreted in Urine (50 mg dose, 14 to 16 hours): (1.5) mcg
- Concentration of Eplerenone Excreted in Urine (50 mg dose, 14 to 16 hours): 21.6 ng/mL
- Amount of Eplerenone Excreted in Urine (50 mg dose, 16 to 24 hours): (4.0) mcg
- Concentration of Eplerenone Excreted in Urine (50 mg dose, 16 to 24 hours): 13.1 ng/mL
- Amount of Eplerenone Excreted in Urine (50 mg dose, −9 to 0 hours): (0) mcg
- Concentration of Eplerenone Excreted in Urine (50 mg dose, −9 to 0 hours): 0 ng/mL
- Amount of Eplerenone Excreted in Urine (100 mg dose, 0 to 2 hours): (360.2) mcg
- Concentration of Eplerenone Excreted in Urine (100 mg dose, 0 to 2 hours): 2623.3 ng/mL
- Amount of Eplerenone Excreted in Urine (100 mg dose, 0 to 24 hours): (1271.4) mcg
- Amount of Eplerenone Excreted in Urine (100 mg dose, 2 to 4 hours): (407.6) mcg
- Concentration of Eplerenone Excreted in Urine (100 mg dose, 2 to 4 hours): 2305.6 ng/mL
- Amount of Eplerenone Excreted in Urine (100 mg dose, 4 to 6 hours): (285.1) mcg
- Concentration of Eplerenone Excreted in Urine (100 mg dose, 4 to 6 hours): 1157.3 ng/mL
- Amount of Eplerenone Excreted in Urine (100 mg dose, 6 to 8 hours): (158.8) mcg
- Concentration of Eplerenone Excreted in Urine (100 mg dose, 6 to 8 hours): 627.6 ng/mL
- Amount of Eplerenone Excreted in Urine (100 mg dose, 8 to 10 hours): (69.1) mcg
- Concentration of Eplerenone Excreted in Urine (100 mg dose, 8 to 10 hours): 362.9 ng/mL
- Amount of Eplerenone Excreted in Urine (100 mg dose, 10 to 12 hours): (44.7) mcg
- Concentration of Eplerenone Excreted in Urine (100 mg dose, 10 to 12 hours): 146.6 ng/mL
- Amount of Eplerenone Excreted in Urine (100 mg dose, 12 to 14 hours): (26.6) mcg
- Concentration of Eplerenone Excreted in Urine (100 mg dose, 12 to 14 hours): 110.3 ng/mL
- Amount of Eplerenone Excreted in Urine (100 mg dose, 14 to 16 hours): (6.6) mcg
- Concentration of Eplerenone Excreted in Urine (100 mg dose, 14 to 16 hours): 36.5 ng/mL
- Amount of Eplerenone Excreted in Urine (100 mg dose, 16 to 24 hours): (2.7) mcg
- Concentration of Eplerenone Excreted in Urine (100 mg dose, 16 to 24 hours): 7.1 ng/mL
- Amount of Eplerenone Excreted in Urine (100 mg dose, −9 to 0 hours): (0) mcg
- Concentration of Eplerenone Excreted in Urine (100 mg dose, −9 to 0 hours): 0 ng/mL
- Amount of Eplerenone Excreted in Urine (300 mg dose, 0 to 2 hours): (677.7) mcg
- Concentration of Eplerenone Excreted in Urine (300 mg dose, 0 to 2 hours): 9370.1 ng/mL
- Amount of Eplerenone Excreted in Urine (300 mg dose, 0 to 24 hours): (2872.3) mcg
- Amount of Eplerenone Excreted in Urine (300 mg dose, 2 to 4 hours): (873.7) mcg
- Concentration of Eplerenone Excreted in Urine (300 mg dose, 2 to 4 hours): 6465.9 ng/mL
- Amount of Eplerenone Excreted in Urine (300 mg dose, 4 to 6 hours): (672.6) mcg
- Concentration of Eplerenone Excreted in Urine (300 mg dose, 4 to 6 hours): 3865.2 ng/mL
- Amount of Eplerenone Excreted in Urine (300 mg dose, 6 to 8 hours): (337.0) mcg
- Concentration of Eplerenone Excreted in Urine (300 mg dose, 6 to 8 hours): 2237.8 ng/mL
- Amount of Eplerenone Excreted in Urine (300 mg dose, 8 to 10 hours): (307.9) mcg
- Concentration of Eplerenone Excreted in Urine (300 mg dose, 8 to 10 hours): 1208.6 ng/mL
- Amount of Eplerenone Excreted in Urine (300 mg dose, 10 to 12 hours): (162.4) mcg
- Concentration of Eplerenone Excreted in Urine (300 mg dose, 10 to 12 hours): 542.4 ng/mL
- Amount of Eplerenone Excreted in Urine (300 mg dose, 12 to 14 hours): (97.4) mcg
- Concentration of Eplerenone Excreted in Urine (300 mg dose, 12 to 14 hours): 419.6 ng/mL
- Amount of Eplerenone Excreted in Urine (300 mg dose, 14 to 16 hours): (52.2) mcg
- Concentration of Eplerenone Excreted in Urine (300 mg dose, 14 to 16 hours): 292.6 ng/mL
- Amount of Eplerenone Excreted in Urine (300 mg dose, 16 to 24 hours): (50.4) mcg
- Concentration of Eplerenone Excreted in Urine (300 mg dose, 16 to 24 hours): 126.4 ng/mL
- Amount of Eplerenone Excreted in Urine (300 mg dose, −9 to 0 hours): (0) mcg
- Concentration of Eplerenone Excreted in Urine (300 mg dose, −9 to 0 hours): 0 ng/mL
- Amount of Eplerenone Excreted in Urine (1000 mg dose, 0 to 2 hours): (1482.0) mcg
- Concentration of Eplerenone Excreted in Urine (1000 mg dose, 0 to 2 hours): 17858.6 ng/mL
- Amount of Eplerenone Excreted in Urine (1000 mg dose, 0 to 24 hours): (17246.6) mcg
- Amount of Eplerenone Excreted in Urine (1000 mg dose, 2 to 4 hours): (5983.3) mcg
- Concentration of Eplerenone Excreted in Urine (1000 mg dose, 2 to 4 hours): 24460.3 ng/mL
- Amount of Eplerenone Excreted in Urine (1000 mg dose, 4 to 6 hours): (4041.5) mcg
- Concentration of Eplerenone Excreted in Urine (1000 mg dose, 4 to 6 hours): 13899.7 ng/mL
- Amount of Eplerenone Excreted in Urine (1000 mg dose, 6 to 8 hours): (2083.0) mcg
- Concentration of Eplerenone Excreted in Urine (1000 mg dose, 6 to 8 hours): 8782.1 ng/mL
- Amount of Eplerenone Excreted in Urine (1000 mg dose, 8 to 10 hours): (1853.9) mcg
- Concentration of Eplerenone Excreted in Urine (1000 mg dose, 8 to 10 hours): 4491.0 ng/mL
- Amount of Eplerenone Excreted in Urine (1000 mg dose, 10 to 12 hours): (1177.2) mcg
- Concentration of Eplerenone Excreted in Urine (1000 mg dose, 10 to 12 hours): 2361.1 ng/mL
- Amount of Eplerenone Excreted in Urine (1000 mg dose, 12 to 14 hours): (892.8) mcg
- Concentration of Eplerenone Excreted in Urine (1000 mg dose, 12 to 14 hours): 3183.7 ng/mL
- Amount of Eplerenone Excreted in Urine (1000 mg dose, 14 to 16 hours): (340.5) mcg
- Concentration of Eplerenone Excreted in Urine (1000 mg dose, 14 to 16 hours): 1405.2 ng/mL
- Amount of Eplerenone Excreted in Urine (1000 mg dose, 16 to 24 hours): (366.0) mcg
- Concentration of Eplerenone Excreted in Urine (1000 mg dose, 16 to 24 hours): 658.0 ng/mL
- Amount of Eplerenone Excreted in Urine (1000 mg dose, −9 to 0 hours): (0) mcg
- Concentration of Eplerenone Excreted in Urine (1000 mg dose, −9 to 0 hours): 0 ng/mL
